Data from paper PMC11148080, “Ru(II)-based complexes containing 2-thiouracil derivatives suppress liver cancer stem cells by targeting NF-κB and Akt/mTOR signaling” (Cell Death Discovery, 2024).
Values joined by “and” are separate entries in the source; they are usually repeats but may differ in a detail not shown here. Equal entries are not always repeated.

Experiments:
Format in all cases: cell-based, human
HepG2 cells [1] = assay: PARP (Asp214) cleavage by flow cytometry; conditions: HepG2, 24 h; 8 μM complex 1, 6 μM complex 2
Description: (§1) To stain intracellular proteins, the cells were harvested and resuspended in 0.5-1 mL of 4% formaldehyde for 10 min at 37 °C. The tube was then placed on ice for 1 min, after which the cells were prechilled and permeabilized using a sequence of 100% (30 min) to 90% (30 min) methanol with gentle mixing. After washing with incubation buffer (0.5% bovine serum albumin in PBS), primary antibodies were added and incubated for 1 h at room temperature. Finally, the cells were washed with PBS, and flow cytometry was used to measure cell fluorescence.

MCF-7 = assay: Alamar Blue cytotoxicity; conditions: for IC50: MCF-7, 72 h
Description: (§2) The Alamar Blue assay was used to measure cell viability, as previously described. Adherent cells were seeded in 96-well plates at a density of 7 × 10^3 cells per well, and suspended cells were seeded at 3 × 10^4 cells per well. Drugs were added to each well after overnight incubation for adherent cells or immediately after seeding for suspension cells, and incubation continued for an additional 72 h. The positive control included doxorubicin (Laboratorio IMA S.A.I.C., Buenos Aires, Argentina). Four hours (for cell lines) or 24 h (for primary cultures) before the end of incubation, 20 μL of resazurin (30 μM) (Sigma‒Aldrich Co. St. Louis, MO, USA) was added to each well. The absorbance at 570 and 600 nm was measured using a SpectraMax 190 microplate reader (Molecular Devices, Sunnyvale, CA, USA).

PANC-1 = assay: Alamar Blue cytotoxicity; conditions: for IC50: PANC-1, 72 h
Description: as §2

KG-1a = assay: Alamar Blue cytotoxicity; conditions: for IC50: KG-1a, 72 h
Description: as §2

HepG2 = assay: Alamar Blue cytotoxicity; conditions: for IC50: HepG2, 72 h
Description: as §2

A-375 = assay: Alamar Blue cytotoxicity; conditions: for IC50: A-375, 72 h
Description: as §2

HCT116 = assay: Alamar Blue cytotoxicity; conditions: for IC50: HCT116, 72 h
Description: as §2

A549 = assay: Alamar Blue cytotoxicity; conditions: for IC50: A549, 72 h
Description: as §2

SCC-9 = assay: Alamar Blue cytotoxicity; conditions: for IC50: SCC-9, 72 h
Description: as §2

Jurkat = assay: Alamar Blue cytotoxicity; conditions: for IC50: Jurkat, 72 h
Description: as §2

SCC4 = assay: Alamar Blue cytotoxicity; conditions: for IC50: SCC4, 72 h
Description: as §2

K-562 = assay: Alamar Blue cytotoxicity; conditions: for IC50: K-562, 72 h
Description: as §2

SCC-25 = assay: Alamar Blue cytotoxicity; conditions: for IC50: SCC-25, 72 h
Description: as §2

THP-1 = assay: Alamar Blue cytotoxicity; conditions: for IC50: THP-1, 72 h
Description: as §2

MDA-MB-231 = assay: Alamar Blue cytotoxicity; conditions: for IC50: MDA-MB-231, 72 h
Description: as §2

HSC-3 = assay: Alamar Blue cytotoxicity; conditions: for IC50: HSC-3, 72 h
Description: as §2

DU 145 = assay: Alamar Blue cytotoxicity; conditions: for IC50: DU 145, 72 h
Description: as §2

BJ = assay: Alamar Blue cytotoxicity, noncancerous cells; conditions: 72 h
Description: as §2

MRC-5 = assay: Alamar Blue cytotoxicity, noncancerous cells; conditions: MRC-5, 72 h
Description: as §2

HepG2 cells [2] = assay: p62/SQSTM1 expression (autophagy); conditions: HepG2, 24 h; 8 μM complex 1, 6 μM complex 2
Description: as §1
The cells were grown on coverslips in 24-well plates and exposed to the drugs for 24 h. The cells were then washed twice with saline solution, permeabilized with 0.5% Triton X-100, treated with RNase (10 μg/mL), and incubated overnight with a primary fluorochrome-conjugated antibody (for antibody details, see Table S5). The next day, the cells were washed with saline solution and mounted using Fluoromount-G with DAPI (Invitrogen, Thermo Fisher Scientific). The cells were examined using a Leica TCS SP8 confocal microscope (Leica Microsystems, Wetzlar, HE, Germany).

HepG2 cells [3] = assay: CD133 and CD44 expression by flow cytometry; conditions: 24 h; for percentage of HepG2 CD133-positive cells: 8 μM complex 1 or 6 μM complex 2
Description: To stain the cell surface proteins, the cells were washed with an incubation buffer (0.5% bovine serum albumin in PBS), and then antibodies were added and incubated for 1 h at room temperature. The cells were then washed with PBS, and the fluorescence signal was measured by flow cytometry. CD133 and CD44 were quantified in YO-PRO-1 (Sigma‒Aldrich Co.) negative cells.
(§3) For all flow cytometry analyses, cellular fluorescence was measured using a BD LSRFortessa cytometer, BD FACSDiva software (BD Biosciences) and FlowJo software 10 (FlowJo LLC; Ashland, OR, USA). A minimum of 10,000 events were obtained per sample for intracellular staining, and a minimum of 30,000 events per sample were acquired for cell surface protein staining. Doublets were removed using FSC-A vs FCS-H and SCC-A vs SCC-H. Cellular debris was excluded from the analysis.

HepG2 cells [4] = assay: Light scattering (FSC/SSC) by flow cytometry; conditions: 24, 48, 72 h
Description: Light scattering characteristics measured by flow cytometry were used to analyze cellular parameters such as size and complexity/granularity in HepG2 cells treated with complexes 1 and 2 (Fig. S6A–S6F). Forward light scattering (FSC) was employed as a cell size metric in this experiment, while side scattering (SSC) was used to determine cell complexity/granularity. […] Both morphological changes are associated with cellular apoptosis, corroborating the findings observed in cells stained with May-Grunwald-Giemsa.
as §3

Compound: Cc1cc(=O)nc([S][Ru+])[nH]1.F[P-](F)(F)(F)(F)F.c1ccc(-c2ccccn2)nc1.c1ccc(P(c2ccccc2)c2ccccc2)cc1.c1ccc(P(c2ccccc2)c2ccccc2)cc1 [Complex 2, trans-[Ru(6m2TU)(PPh3)2(bipy)]PF6]
- PARP (Asp214) cleavage (HepG2 cells [1]): increased levels
- IC50 (MCF-7): 7.29 µM
- IC50 (PANC-1): 4.09 µM
- IC50 (KG-1a): 3.77 µM
- IC50 (HepG2): 3.17 µM
- IC50 (A-375): 2 µM
- IC50 (HCT116): 4.52 µM
- IC50 (A549): 10.5 µM
- IC50 (SCC-9): 2.54 µM
- IC50 (Jurkat): 4.94 µM
- IC50 (SCC4): 3.48 µM
- IC50 (K-562): 7.69 µM
- IC50 (SCC-25): 3.63 µM
- IC50 (THP-1): 6.47 µM
- IC50 (MDA-MB-231): 2.95 µM
- IC50 (HSC-3): 5.55 µM
- IC50 (DU 145): 3.74 µM
- IC50 (BJ): 7.8 µM and 7.79 µM
- IC50 (MRC-5): 15.2 µM
- IC50 (MRC-5; listed as 2): 15.2 µM
- induction of autophagy (p62/SQSTM1 expression) (HepG2 cells [2]): none of them caused autophagy
- percentage of HepG2 CD44high cells (HepG2 cells [3]; 6 μM complex 2): reduced
- percentage of HepG2 CD133-positive cells (HepG2 cells [3]): reduced
- cell size/granularity (FSC decrease, SSC increase) (HepG2 cells [4]): caused cell shrinkage

Compound: COc1cccc2c1C(=O)c1c(O)c3c(c(O)c1C2=O)C[C@@](O)(C(=O)CO)C[C@@H]3O[C@H]1C[C@H](N)[C@H](O)[C@H](C)O1 [Doxorubicin]
- IC50 (MCF-7; Homo sapiens, MCF7): 2.28 µM
- Selectivity index (MCF-7; IC50 BJ/IC50 MCF-7): 0.81
- Selectivity index (MCF-7; IC50 MRC-5/IC50 MCF-7): 0.75
- Selectivity index (MCF-7; IC50 PBMC/IC50 MCF-7): 0.58
- IC50 (PANC-1; Homo sapiens): 1.11 µM
- Selectivity index (PANC-1; IC50 BJ/IC50 PANC-1): 1.67
- Selectivity index (PANC-1; IC50 MRC-5/IC50 PANC-1): 1.53
- Selectivity index (PANC-1; IC50 PBMC/IC50 PANC-1): 1.20
- IC50 (KG-1a; Homo sapiens): 0.07 µM
- Selectivity index (KG-1a; IC50 BJ/IC50 KG-1a): 26.43
- Selectivity index (KG-1a; IC50 MRC-5/IC50 KG-1a): 24.29
- Selectivity index (KG-1a; IC50 PBMC/IC50 KG-1a): 19.00
- IC50 (HepG2; Homo sapiens): 0.32 µM
- Selectivity index (HepG2; IC50 BJ/IC50 HepG2): 5.78
- Selectivity index (HepG2; IC50 MRC-5/IC50 HepG2): 5.31
- Selectivity index (HepG2; IC50 PBMC/IC50 HepG2): 4.16
- IC50 (A-375; Homo sapiens): 0.16 µM
- Selectivity index (A-375; IC50 BJ/IC50 A-375): 11.56
- Selectivity index (A-375; IC50 MRC-5/IC50 A-375): 10.63
- Selectivity index (A-375; IC50 PBMC/IC50 A-375): 8.31
- IC50 (HCT116; Homo sapiens, HCT-116): 0.86 µM
- Selectivity index (HCT116; IC50 BJ/IC50 HCT116): 2.15
- Selectivity index (HCT116; IC50 MRC-5/IC50 HCT116): 1.98
- Selectivity index (HCT116; IC50 PBMC/IC50 HCT116): 1.55
- Selectivity index (A549; IC50 BJ/IC50 A549): 0.79
- Selectivity index (A549; IC50 MRC-5/IC50 A549): 0.72
- Selectivity index (A549; IC50 PBMC/IC50 A549): 0.57
- IC50 (SCC-9; Homo sapiens): 1 µM
- Selectivity index (SCC-9; IC50 BJ/IC50 SCC-9): 1.85
- Selectivity index (SCC-9; IC50 MRC-5/IC50 SCC-9): 1.70
- Selectivity index (SCC-9; IC50 PBMC/IC50 SCC-9): 1.33
- IC50 (Jurkat; Homo sapiens): 0.06 µM
- Selectivity index (Jurkat; IC50 BJ/IC50 Jurkat): 30.83
- Selectivity index (Jurkat; IC50 MRC-5/IC50 Jurkat): 28.33
- Selectivity index (Jurkat; IC50 PBMC/IC50 Jurkat): 22.17
- IC50 (SCC4; Homo sapiens, SCC-4): 1.8 µM
- Selectivity index (SCC4; IC50 BJ/IC50 SCC4): 1.03
- Selectivity index (SCC4; IC50 MRC-5/IC50 SCC4): 0.94
- Selectivity index (SCC4; IC50 PBMC/IC50 SCC4): 0.74
- IC50 (K-562; Homo sapiens, K562): 1.65 µM
- Selectivity index (K-562; IC50 BJ/IC50 K-562): 1.12
- Selectivity index (K-562; IC50 MRC-5/IC50 K-562): 1.03
- Selectivity index (K-562; IC50 PBMC/IC50 K-562): 0.81
- IC50 (SCC-25; Homo sapiens): 1.44 µM
- Selectivity index (SCC-25; IC50 BJ/IC50 SCC-25): 1.28
- Selectivity index (SCC-25; IC50 MRC-5/IC50 SCC-25): 1.18
- Selectivity index (SCC-25; IC50 PBMC/IC50 SCC-25): 0.92
- IC50 (THP-1; Homo sapiens): 0.14 µM
- Selectivity index (THP-1; IC50 BJ/IC50 THP-1): 13.21
- Selectivity index (THP-1; IC50 MRC-5/IC50 THP-1): 12.14
- Selectivity index (THP-1; IC50 PBMC/IC50 THP-1): 9.50
- IC50 (MDA-MB-231; Homo sapiens): 0.43 µM
- Selectivity index (MDA-MB-231; IC50 BJ/IC50 MDA-MB-231): 4.30
- Selectivity index (MDA-MB-231; IC50 MRC-5/IC50 MDA-MB-231): 3.95
- Selectivity index (MDA-MB-231; IC50 PBMC/IC50 MDA-MB-231): 3.09
- IC50 (HSC-3; Homo sapiens): 0.69 µM
- Selectivity index (HSC-3; IC50 BJ/IC50 HSC-3): 2.68
- Selectivity index (HSC-3; IC50 MRC-5/IC50 HSC-3): 2.46
- Selectivity index (HSC-3; IC50 PBMC/IC50 HSC-3): 1.93
- IC50 (DU 145; Homo sapiens): 0.24 µM
- Selectivity index (DU 145; IC50 BJ/IC50 DU 145): 7.71
- Selectivity index (DU 145; IC50 MRC-5/IC50 DU 145): 7.08
- Selectivity index (DU 145; IC50 PBMC/IC50 DU 145): 5.54
- IC50 (BJ; Homo sapiens): 1.85 µM
- IC50 (MRC-5; Homo sapiens, MRC5): 1.7 µM

Compound: F[P-](F)(F)(F)(F)F.O=c1cc[nH]c([S][Ru+])n1.c1ccc(-c2ccccn2)nc1.c1ccc(P(c2ccccc2)c2ccccc2)cc1.c1ccc(P(c2ccccc2)c2ccccc2)cc1 [Complex 1, trans-[Ru(2TU)(PPh3)2(bipy)]PF6]
- PARP (Asp214) cleavage (HepG2 cells [1]): increased levels
- IC50 (MCF-7): 9.21 µM
- IC50 (PANC-1): 9.45 µM
- IC50 (KG-1a): 4.77 µM
- IC50 (HepG2): 3.49 µM
- IC50 (A-375): 3.01 µM
- IC50 (HCT116): 4.74 µM
- IC50 (A549): 17.5 µM
- IC50 (SCC-9): 4.4 µM
- IC50 (Jurkat): 5.07 µM
- IC50 (SCC4): 4.77 µM
- IC50 (K-562): 6.77 µM
- IC50 (SCC-25): 7.61 µM
- IC50 (THP-1): 4.75 µM
- IC50 (MDA-MB-231): 2.62 µM
- IC50 (HSC-3): 8.36 µM
- IC50 (DU 145): 7.6 µM
- IC50 (BJ): 7 µM
- IC50 (MRC-5): 17.7 µM
- induction of autophagy (p62/SQSTM1 expression) (HepG2 cells [2]): none of them caused autophagy
- percentage of HepG2 CD133-positive cells (HepG2 cells [3]): reduced
- cell size/granularity (FSC decrease, SSC increase) (HepG2 cells [4]): caused cell shrinkage
